# Measured values: PubChem BioAssay (NCI)
#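 Assay format: 96-well plates, 48-hour exposure. TGI marks complete inhibition of growth.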
# How the values were obtained:
# Assay in all cases: NCI anticancer screen, dose series, 48 h
# TK-10 renal = system: TK-10 renal
# NCI-H23 lung = system: NCI-H23 lung
# RXF 393 renal = system: RXF 393 renal
# SK-MEL-5 melanoma = system: SK-MEL-5 melanoma
# HT29 colon = system: HT29 colon
# CCRF-CEM leukemia = system: CCRF-CEM leukemia
# OVCAR-5 ovarian = system: OVCAR-5 ovarian
# K-562 leukemia = system: K-562 leukemia
# KM12 colon = system: KM12 colon
# SK-MEL-2 melanoma = system: SK-MEL-2 melanoma
# SR leukemia = system: SR leukemia
SMILES,TGI (TK-10 renal) [µM],TGI (NCI-H23 lung) [µM],TGI (RXF 393 renal) [µM],TGI (SK-MEL-5 melanoma) [µM],TGI (HT29 colon) [µM],TGI (CCRF-CEM leukemia) [µM],TGI (OVCAR-5 ovarian) [µM],TGI (K-562 leukemia) [µM],TGI (KM12 colon) [µM],TGI (SK-MEL-2 melanoma) [µM],TGI (SR leukemia) [µM]
O=S(=O)(/N=C(\NO)Nc1ccc(Cl)cc1)c1ccc(-c2ccccn2)s1,> 100,> 100,94.4,> 100,> 100,> 100,> 100,> 100,> 100,> 100,> 100
COc1ccc(C[C@@H]2OC3(C=CC(=O)C=C3)O[C@H]2Cc2ccc(OC)cc2)cc1,1.21,3.53,0.79,2.94,2.18,0.521,2.05,> 100,5.04,3.41,1.84
CCCCCCCCCCCCCCCCP(=O)([O-])OCC[N+](C)(C)C,3.51,40,15,30,25.5,24.7,21.8,35.7,9.33,31.5,29.4
CC(=O)O[C@H]1CC[C@H]2[C@@H]3CCC(C(C)=O)[C@H](C(=O)O)[C@H]3CC[C@]12C (some centres undefined),> 100,> 100,> 100,> 100,> 100,> 100,> 100,> 100,> 100,> 100,> 100
COc1cc2c(cc1OCCCCCOc1cc3c(cc1OC)C(=O)N1CCC[C@H]1CN3)N=C[C@@H]1CCCN1C2=O,63.3,20.5,72,12.2,37.3,0.592,69.4,17.6,15.2,11.5,1.11
COc1cccc(-c2cc(=O)c3cc(Cl)cnc3[nH]2)c1,> 89.9,8.3,> 100,7.33,13.8,> 100,> 100,> 100,44.2,98.2,20.4
C=CCN1CCC2(CC1)NC(=O)c1ccccc1O2,> 100,> 100,> 100,> 100,> 100,> 100,> 100,> 100,> 100,> 100,> 100
C=CC1(c2ccc(OC)cc2)OCCCO1,> 100,> 100,> 100,> 100,> 100,> 100,> 100,> 100,> 100,> 100,> 100
CN(C)CCn1nc(N)c2nc3cc(C(F)(F)F)ccc3nc21,> 100,> 100,> 100,> 100,> 100,> 100,> 100,> 100,> 100,> 100,> 100
COC(=O)[C@H](CCSC)NC(=O)c1ccc(CNC(=O)/C(C)=C/c2ccccc2)cc1,> 100,> 100,51.1,> 100,42.7,> 100,> 100,> 100,> 100,66.3,> 100
O=C1OC(=O)C2C1C(c1ccccc1[N+](=O)[O-])C=C(c1ccco1)N2c1ccncc1 (centres undefined),> 26.9,26.2,19.1,19.7,6.13,17,51.6,5.33,4.65,19.8,1.44
O=[N+]([O-])c1ccc2ncccc2c1CCc1c([N+](=O)[O-])ccc2ncccc12,> 100,> 100,> 100,> 100,> 100,> 100,> 100,> 100,> 100,> 100,> 100
CCOC(=O)CC[C@H](N)C(=O)N[C@H](Cc1ccc(N(CCCl)CCCl)cc1)C(=O)OCC,8.51,4.29,3.66,> 100,13.3,> 100,14.7,> 100,15.9,> 28.4,> 33.6
OC(CN1CCCCC1)c1ccc(/C=C/c2ccc(Cl)cc2)cc1 (centres undefined),> 100,> 100,> 100,43.8,> 100,> 100,> 100,> 100,40.3,50.9,> 100
